Test results published in patent US10676440B2, “Crystalline forms of an NK-1 antagonist” (Helsinn Healthcare SA, priority 2014, dated 2020).

How the values were obtained:
rat plasma proteins = assay: Binding to rat plasma proteins; type: in vitro ADME
[1] = Brain and CSF penetration after intravenous administration in rats; type: in vivo; conditions: male, RoRo Fuellinsdorf, rat, brain homogenate / plasma, i.v., approximately 0.25, 0.5, 1 and 2 h, read-out: ratios of brain homogenate/plasma concentrations
Experimental: After centrifugation, plasma was removed.
The frozen half brain was weighed. After thawing, the tissue was suspended in a 2 mL eppendorf polypropylene tube with 2 volumes of sterile apyrogen and cold NaCl (+4° C.; 0.9% solution) (0.333 g brain/mL NaCl). The tissue was homogenized (ice bath) using a Vibra-Cell ultrasonic processor (Sonics & Material, Inc. Danbury, CT-USA) for 2×10 s (amplitude: 60, energy: 25). An aliquot of the resulting brain homogenate (40 μL) was used for extraction as described for plasma. 50 μL CSF with 50 μL plasma were used for extraction as described under plasma sample preparation.
Brains were taken at approximately 0.25, 0.5, 1 and 2 h after intravenous administration of Formula I into the tail vein of 8 rats (2 rats per time point). For all time points, the concentrations were higher in the brain than in the plasma, with ratios of brain homogenate/plasma concentrations of 2.4 to 4.9. The CSF was taken at the same time points and analyzed but the concentrations were low (4.9 to 16 ng/mL or below 4 ng/mL), possibly due to the high plasma protein binding.

in vivo = conditions: male, RoRo Fuellinsdorf, rat, in vivo; for AUC(0-t): AUC (0-24 h)
Experimental: In Example 11, the pharmacokinetics of the compound of Formula I was evaluated following single intravenous, intraperitoneal, and oral administration to rats to compare the oral bioavailability of two different formulations and to measure the brain penetration after intravenous administration.
A solution of the compound of Formula I (4.7 mg/mL) in water and a suspension of the compound of Formula I (5 mg/mL) in SSV (standard suspension vehicle) were prepared.
The experiments were performed in 20 male rats (Strain RoRo Fuellinsdorf, body weight 230-290 g) from Biological Research Laboratories, Fuellinsdorf, Switzerland. The animals were housed under standard laboratory conditions throughout the study period. After an acclimatization period of 3 days, the rats were implanted with chronic jugular catheters under pentobarbital anesthesia. After surgery the rats were on recovery for 2 days before dosing. They had free access to water and food during the experiment.
For the pharmacokinetic studies, 0.4 mL blood samples were collected at different time points, up to 72 hours post-dose, from the jugular vein of the rats via catheter. For the study of brain and CSF penetration, 2 mL blood samples as well as CSF and brain were collected between 0.3 and 2 hours post-dose from one rat at each time point. Collection tubes contained EDTA/NAF as anticoagulant and stabilizer, respectively. After centrifugation, plasma was removed. Plasma, CSF and brain samples were stored deep-frozen at approximately −20° C. until analysis using a specific LC-MS method.
Aliquots of plasma samples of 40 μL were mixed with 50 μL buffer pH 9, 50 μL of a Formula I internal standard (1 μg/mL 1-chlorobutane) and 250 μL butylacetate and then shaken for 10 min. After centrifugation, 200 μL of the supernatant were evaporated to dryness at 45° C. under a stream of nitrogen. The residue was reconstituted with 200 μL acetonitrile/1% formic acid in water (30/70, v/v). An aliquot of 30 μL was injected onto an analytical column (Waters, Symmetry C8, 2.1×150 mm, 5 μm).
The sample passed to the ion-spray interface of the single quadrupole mass spectrometer. Selected ion monitoring mode (SIM) was used for mass spectrometric detection. Quantification was based on peak area ratios and calibration curve established by weighted (1/x^2) linear regression. The calibration curve was established between 5 and 5000 ng/mL using dog plasma as matrix. Data acquisition and integration of SIM chromatograms were performed using MacQuan (version 1.6) from Perkin-Elmer Sciex.
The pharmacokinetic parameters were estimated by non-compartmental analysis, using the pharmacokinetic evaluation program WinNOnlin [1]. AUC(0-inf) was calculated applying the linear trapezoidal rule and extrapolation to infinity using the apparent elimination rate constant λz and the calculated concentration at the last measurable time point. AUClast values were calculated by linear trapezoidal rule from time zero to time of last measureable time point. Cmax, C(t), and Tmax were determined directly from the plasma concentration-time profiles. The apparent terminal half-life (T1/2) was derived from the equation: T1/2=ln2/λz. Means of the half-life were calculated by harmonic means. Plasma clearance, CL, was calculated as D/AUC(0-inf.). Volume of distribution, Vz, was calculated as CL/λz. The absolute bioavailability was calculated from plasma concentration data as follows: […]
A solution of Formula I (hydrochloride salt) was administered intravenously at a dose of 9.4 mg/kg to 2 male rats in two subsequent experiments. In both studies, blood samples were obtained at 0.083, 0.25, 0.5, 1, 2, 4, 6, 8, and 24 h after intravenous application and in addition at 48 and 72 h in the study.

[2] = Pilot whole body autoradiography study in rats; type: in vivo

Cc1ccccc1-c1cc(N2CCN(C)CC2)ncc1N(C)C(=O)C(C)(C)c1cc(C(F)(F)F)cc(C(F)(F)F)c1 [Formula I, 2-(3,5-bis(trifluoromethyl)phenyl)-N,2-dimethyl-N-(6-(4-methylpiperazin-1-yl)-4-(o-tolyl)pyridin-3-yl)propanamide]
binding to rat plasma proteins (rat plasma proteins): 99.8%
Kp [1]: 2.4 to 4.9
AUC (0-24 h) (in vivo; ip, 9.4 mg/kg): 19900 ng·h/mL
Cmax (in vivo; ip, 9.4 mg/kg): 1730 ng/mL
Tmax (in vivo; ip, 9.4 mg/kg): 0.25 h
AUC(0-t) (in vivo; ip, 9.4 mg/kg): 26800 ng·h/mL
Cmax (in vivo; ip, 9.4 mg/kg, Cmax): 1610 ng/mL
Tmax (in vivo; ip, 9.4 mg/kg, Tmax): ≤ 0.25 h
Vd (in vivo; iv): 12 L/kg
clearance (in vivo; iv): 6 mL/min/kg
AUC (0-24 h) (in vivo; iv, 9.4 mg/kg): 24400 ng·h/mL
AUC(0-t) (in vivo; iv, 9.4 mg/kg): 29200 ng·h/mL
half-life (in vivo; iv, 9.4 mg/kg, mean apparent terminal half-life): 19.5 h
AUC (0-24 h) (in vivo; po, 9.4 mg/kg): 12600 ng·h/mL
Cmax (in vivo; po, 9.4 mg/kg): 682 ng/mL
T1/2 (in vivo; po, 9.4 mg/kg): 18.9 h
Tmax (in vivo; po, 9.4 mg/kg): 4 h
AUC(0-t) (in vivo; po, 9.4 mg/kg): 15000 ng·h/mL
Cmax (in vivo; po, 9.4 mg/kg, Cmax): 991 ng/mL
half-life (in vivo; po, 9.4 mg/kg, T1/2): 17.7 h
Tmax (in vivo; po, 9.4 mg/kg, Tmax): 2 h
distribution and elimination of the labeled compound and/or metabolites [2]: extensive distribution of the labeled compound and/or metabolites as well as a very slow elimination from the body
